Consider 23 compounds from ChEMBL document CHEMBL4152299, “Synthesis, crystal structure and antimicrobial potential of some fluorinated chalcone-1,2,3-triazole conjugates” (2018).

Format in all cases: functional
One assay has as its system Pseudomonas aeruginosa. Kind of assay: Antibacterial activity against Pseudomonas aeruginosa MTCC 424 after 24 hrs by serial dilution method. The settings on record: MTCC 424, 24 h.
In the next assay the test system is Bacillus subtilis. Kind of assay: Antibacterial activity against Bacillus subtilis MTCC 441 after 24 hrs by serial dilution method. The conditions noted are these: MTCC 441, 24 h.
The test system of the next assay is Aspergillus niger. Kind of assay: Antifungal activity against Aspergillus niger MTCC 8189 after 120 hrs by serial dilution method. The settings on record: MTCC 8189, 120 h.
A further assay concerns Escherichia coli. As to the kind of experiment: Antibacterial activity against Escherichia coli MTCC 16521 after 24 hrs by serial dilution method. The conditions noted are these: MTCC 16521, 24 h.
A further assay has as its system Candida albicans. As to the kind of experiment: Antifungal activity against Candida albicans MTCC 227 after 48 hrs by serial dilution method. The settings on record: MTCC 227, 48 h.
In assay [1] the test system is Staphylococcus epidermidis. Kind of assay: Antibacterial activity against Staphylococcus epidermidis MTCC 6880 after 24 hrs by serial dilution method. The conditions noted are these: MTCC 6880, 24 h.

Values after ≈ are worked out from the molar mass of the structure shown.

The MIC is the lowest concentration that inhibits growth of the organism. A higher MIC goes with weaker potency. On to `COc1ccc(C(=O)/C=C/c2c(OCc3cn(Cc4ccccc4F)nn3)ccc3ccccc23)cc1`, for which the minimal inhibitory concentration (MIC) against Pseudomonas aeruginosa turned out to be 12.6 µM (≈ 6.22 µg/mL); in the assay with Bacillus subtilis it was 25.3 µM (≈ 12.5 µg/mL); with Aspergillus niger, 25.3 µM (≈ 12.5 µg/mL); in the assay on Escherichia coli it was 6.3 µM (≈ 3.11 µg/mL); in the assay with Candida albicans, 6.3 µM (≈ 3.11 µg/mL); in assay [1], 25.3 µM (≈ 12.5 µg/mL).
Take `O=C(/C=C/c1c(OCc2cn(-c3ccc(F)cc3)nn2)ccc2ccccc12)c1ccc(Br)cc1`: the minimum inhibitory concentration (MIC) in the assay on Pseudomonas aeruginosa amounted to 47.4 µM (≈ 25 µg/mL); in the assay on Bacillus subtilis, 47.4 µM (≈ 25 µg/mL); with Aspergillus niger it was 23.7 µM (≈ 12.5 µg/mL); against Escherichia coli, 23.7 µM (≈ 12.5 µg/mL); against Candida albicans, 47.4 µM (≈ 25 µg/mL); in assay [1], 47.4 µM (≈ 25 µg/mL).
For `O=C(/C=C/c1c(OCc2cn(Cc3ccccc3)nn2)ccc2ccccc12)c1ccc([N+](=O)[O-])cc1`, the MIC in the assay on Pseudomonas aeruginosa worked out at 12.8 µM (≈ 6.28 µg/mL); in the assay with Bacillus subtilis, 6.3 µM (≈ 3.09 µg/mL); with Aspergillus niger, 6.3 µM (≈ 3.09 µg/mL); with Escherichia coli, 12.8 µM (≈ 6.28 µg/mL); in the assay on Candida albicans it was 12.8 µM (≈ 6.28 µg/mL); in assay [1], 6.3 µM (≈ 3.09 µg/mL).
Take `COc1ccc(C(=O)/C=C/c2c(OCc3cn(-c4cccc(C(F)(F)F)c4)nn3)ccc3ccccc23)cc1`: the MIC was determined as 23.6 µM (≈ 12.5 µg/mL) in the assay on Pseudomonas aeruginosa; 23.6 µM (≈ 12.5 µg/mL) in the assay on Bacillus subtilis; 11.8 µM (≈ 6.25 µg/mL) in the assay with Aspergillus niger; 11.8 µM (≈ 6.25 µg/mL) against Escherichia coli; 11.8 µM (≈ 6.25 µg/mL) in the assay on Candida albicans; 23.6 µM (≈ 12.5 µg/mL) in assay [1].
Turning to `O=C(/C=C/c1c(OCc2cn(-c3ccc(F)cc3)nn2)ccc2ccccc12)c1ccc([N+](=O)[O-])cc1`, the MIC against Pseudomonas aeruginosa came out at 25.3 µM (≈ 12.5 µg/mL); against Bacillus subtilis, 12.6 µM (≈ 6.23 µg/mL); against Aspergillus niger, 12.6 µM (≈ 6.23 µg/mL); with Escherichia coli it was 25.3 µM (≈ 12.5 µg/mL); with Candida albicans it was 12.6 µM (≈ 6.23 µg/mL); in assay [1], 25.3 µM (≈ 12.5 µg/mL).
As for `O=C(/C=C/c1c(OCc2cn(Cc3cccc(F)c3)nn2)ccc2ccccc12)c1ccc(Br)cc1`, the MIC came to 23.2 µM (≈ 12.6 µg/mL) in the assay with Pseudomonas aeruginosa; 11.6 µM (≈ 6.29 µg/mL) in the assay with Bacillus subtilis; 23.2 µM (≈ 12.6 µg/mL) in the assay with Aspergillus niger; 11.6 µM (≈ 6.29 µg/mL) in the assay with Escherichia coli; 23.2 µM (≈ 12.6 µg/mL) in the assay on Candida albicans; 23.2 µM (≈ 12.6 µg/mL) in assay [1].
For `O=C(/C=C/c1c(OCc2cn(Cc3ccccc3)nn2)ccc2ccccc12)c1ccc(Br)cc1`, the minimum inhibitory concentration (MIC) amounted to 11.9 µM (≈ 6.24 µg/mL) against Pseudomonas aeruginosa; 23.9 µM (≈ 12.5 µg/mL) against Bacillus subtilis; 11.9 µM (≈ 6.24 µg/mL) with Aspergillus niger; 11.9 µM (≈ 6.24 µg/mL) in the assay with Escherichia coli; 11.9 µM (≈ 6.24 µg/mL) against Candida albicans; 11.9 µM (≈ 6.24 µg/mL) in assay [1].
With `C#CCOc1ccc2ccccc2c1/C=C/C(=O)c1ccc(OC)cc1`, the MIC in the assay with Pseudomonas aeruginosa turned out to be 73.1 µM (≈ 25 µg/mL); against Bacillus subtilis, 73.1 µM (≈ 25 µg/mL); with Aspergillus niger, 73.1 µM (≈ 25 µg/mL); in the assay with Escherichia coli, 73.1 µM (≈ 25 µg/mL); against Candida albicans it was 73.1 µM (≈ 25 µg/mL); in assay [1] it was 146 µM (≈ 50.1 µg/mL).
Consider `O=C(/C=C/c1c(OCc2cn(Cc3ccc(F)cc3)nn2)ccc2ccccc12)c1ccc([N+](=O)[O-])cc1`, for which the MIC came to 6.3 µM (≈ 3.2 µg/mL) against Pseudomonas aeruginosa; 6.3 µM (≈ 3.2 µg/mL) in the assay on Bacillus subtilis; 3.2 µM (≈ 1.63 µg/mL) against Aspergillus niger; 3.2 µM (≈ 1.63 µg/mL) against Escherichia coli; 3.2 µM (≈ 1.63 µg/mL) against Candida albicans; 3.2 µM (≈ 1.63 µg/mL) in assay [1].
For the compound `COc1ccc(C(=O)/C=C/c2c(OCc3cn(-c4ccc(F)cc4)nn3)ccc3ccccc23)cc1`, the MIC against Pseudomonas aeruginosa worked out at 26.1 µM (≈ 12.5 µg/mL); in the assay with Bacillus subtilis it was 26.1 µM (≈ 12.5 µg/mL); against Aspergillus niger, 52.2 µM (≈ 25 µg/mL); with Escherichia coli, 13 µM (≈ 6.23 µg/mL); in the assay with Candida albicans it was 13 µM (≈ 6.23 µg/mL); in assay [1], 52.2 µM (≈ 25 µg/mL).
Regarding `O=C(/C=C/c1c(OCc2cn(Cc3ccccc3F)nn2)ccc2ccccc12)c1ccc(Br)cc1`, the MIC came out at 23.2 µM (≈ 12.6 µg/mL) against Pseudomonas aeruginosa; 11.6 µM (≈ 6.29 µg/mL) against Bacillus subtilis; 23.2 µM (≈ 12.6 µg/mL) in the assay on Aspergillus niger; 11.6 µM (≈ 6.29 µg/mL) in the assay on Escherichia coli; 23.2 µM (≈ 12.6 µg/mL) against Candida albicans; 11.6 µM (≈ 6.29 µg/mL) in assay [1].
Turning to `O=C(/C=C/c1c(OCc2cn(Cc3cccc(F)c3)nn2)ccc2ccccc12)c1ccc([N+](=O)[O-])cc1`, the minimal inhibitory concentration (MIC) with Pseudomonas aeruginosa came out at 6.3 µM (≈ 3.2 µg/mL); with Bacillus subtilis, 12.6 µM (≈ 6.41 µg/mL); against Aspergillus niger, 6.3 µM (≈ 3.2 µg/mL); with Escherichia coli, 6.3 µM (≈ 3.2 µg/mL); with Candida albicans, 6.3 µM (≈ 3.2 µg/mL); in assay [1] it was 6.3 µM (≈ 3.2 µg/mL).
Turning to `C#CCOc1ccc2ccccc2c1/C=C/C(=O)c1ccc(Br)cc1`, the minimum inhibitory concentration (MIC) against Pseudomonas aeruginosa was found to be 63.7 µM (≈ 24.9 µg/mL); against Bacillus subtilis, 63.7 µM (≈ 24.9 µg/mL); in the assay with Aspergillus niger, 127 µM (≈ 49.8 µg/mL); in the assay on Escherichia coli, 63.7 µM (≈ 24.9 µg/mL); against Candida albicans it was 63.7 µM (≈ 24.9 µg/mL); in assay [1], 127 µM (≈ 49.8 µg/mL).
As to `O=C(/C=C/c1c(OCc2cn(-c3cccc(C(F)(F)F)c3)nn2)ccc2ccccc12)c1ccc(Br)cc1`, the MIC in the assay on Pseudomonas aeruginosa was 10.8 µM (≈ 6.25 µg/mL); with Bacillus subtilis it was 21.7 µM (≈ 12.6 µg/mL); in the assay with Aspergillus niger, 10.8 µM (≈ 6.25 µg/mL); against Escherichia coli, 10.8 µM (≈ 6.25 µg/mL); with Candida albicans, 21.7 µM (≈ 12.6 µg/mL); in assay [1], 21.7 µM (≈ 12.6 µg/mL).
As for `COc1ccc(C(=O)/C=C/c2c(OCc3cn(Cc4ccccc4)nn3)ccc3ccccc23)cc1`, the MIC in the assay with Pseudomonas aeruginosa amounted to 26.3 µM (≈ 12.5 µg/mL); with Bacillus subtilis, 26.3 µM (≈ 12.5 µg/mL); against Aspergillus niger it was 52.6 µM (≈ 25 µg/mL); in the assay on Escherichia coli, 26.3 µM (≈ 12.5 µg/mL); against Candida albicans, 52.6 µM (≈ 25 µg/mL); in assay [1], 52.6 µM (≈ 25 µg/mL).
Turning to `O=C(/C=C/c1c(OCc2cn(-c3cccc(C(F)(F)F)c3)nn2)ccc2ccccc12)c1ccc([N+](=O)[O-])cc1`, the MIC was found to be 23 µM (≈ 12.5 µg/mL) in the assay on Pseudomonas aeruginosa; 45.9 µM (≈ 25 µg/mL) against Bacillus subtilis; 45.9 µM (≈ 25 µg/mL) with Aspergillus niger; 23 µM (≈ 12.5 µg/mL) in the assay on Escherichia coli; 11.5 µM (≈ 6.26 µg/mL) against Candida albicans; 23 µM (≈ 12.5 µg/mL) in assay [1].
As for `O=C(O)c1cn(C2CC2)c2cc(N3CCNCC3)c(F)cc2c1=O` [CIPROFLOXACIN], the MIC (against Pseudomonas aeruginosa; against Bacillus subtilis; in the assay on Escherichia coli; in assay [1]) was 4.7 µM (≈ 1.56 µg/mL) each time.
Take `COc1ccc(C(=O)/C=C/c2c(OCc3cn(Cc4cccc(F)c4)nn3)ccc3ccccc23)cc1`: the MIC against Pseudomonas aeruginosa is 25.3 µM (≈ 12.5 µg/mL); in the assay with Bacillus subtilis it was 25.3 µM (≈ 12.5 µg/mL); with Aspergillus niger it was 12.6 µM (≈ 6.22 µg/mL); against Escherichia coli, 12.6 µM (≈ 6.22 µg/mL); in the assay with Candida albicans, 12.6 µM (≈ 6.22 µg/mL); in assay [1], 25.3 µM (≈ 12.5 µg/mL).
`O=C(/C=C/c1c(OCc2cn(Cc3ccc(F)cc3)nn2)ccc2ccccc12)c1ccc(Br)cc1`: the MIC in the assay on Pseudomonas aeruginosa was 11.6 µM (≈ 6.29 µg/mL); in the assay with Bacillus subtilis, 5.8 µM (≈ 3.15 µg/mL); in the assay with Aspergillus niger, 5.8 µM (≈ 3.15 µg/mL); against Escherichia coli, 5.8 µM (≈ 3.15 µg/mL); against Candida albicans, 5.8 µM (≈ 3.15 µg/mL); in assay [1], 5.8 µM (≈ 3.15 µg/mL).
For the compound `COc1ccc(C(=O)/C=C/c2c(OCc3cn(Cc4ccc(F)cc4)nn3)ccc3ccccc23)cc1`, the MIC was 25.3 µM (≈ 12.5 µg/mL) in the assay on Pseudomonas aeruginosa; 25.3 µM (≈ 12.5 µg/mL) in the assay on Bacillus subtilis; 12.6 µM (≈ 6.22 µg/mL) against Aspergillus niger; 3.2 µM (≈ 1.58 µg/mL) with Escherichia coli; 6.3 µM (≈ 3.11 µg/mL) against Candida albicans; 25.3 µM (≈ 12.5 µg/mL) in assay [1].
As for `OC(Cn1cncn1)(Cn1cncn1)c1ccc(F)cc1F` [FLUCONAZOLE], the minimum inhibitory concentration (MIC) worked out at 5.1 µM (≈ 1.56 µg/mL) in the assay on Aspergillus niger and 10.2 µM (≈ 3.12 µg/mL) in the assay with Candida albicans.
For `C#CCOc1ccc2ccccc2c1/C=C/C(=O)c1ccc([N+](=O)[O-])cc1`, the minimum inhibitory concentration (MIC) with Pseudomonas aeruginosa stood at 70 µM (≈ 25 µg/mL); in the assay on Bacillus subtilis it was 140 µM (≈ 50 µg/mL); against Aspergillus niger it was 70 µM (≈ 25 µg/mL); with Escherichia coli it was 70 µM (≈ 25 µg/mL); in the assay with Candida albicans, 70 µM (≈ 25 µg/mL); in assay [1] it was 70 µM (≈ 25 µg/mL).
On to `O=C(/C=C/c1c(OCc2cn(Cc3ccccc3F)nn2)ccc2ccccc12)c1ccc([N+](=O)[O-])cc1`, for which the minimal inhibitory concentration (MIC) turned out to be 24.8 µM (≈ 12.6 µg/mL) in the assay with Pseudomonas aeruginosa; 6.3 µM (≈ 3.2 µg/mL) against Bacillus subtilis; 6.3 µM (≈ 3.2 µg/mL) against Aspergillus niger; 6.3 µM (≈ 3.2 µg/mL) against Escherichia coli; 6.3 µM (≈ 3.2 µg/mL) against Candida albicans; 6.3 µM (≈ 3.2 µg/mL) in assay [1].
